Data on 18 compounds can be found in patent publication US20260355196A1, “INHIBITORS AND DEGRADERS OF PIP4K PROTEIN” (Larkspur Biosciences, Inc., priority 2023, published 2026).

In general, DC50 refers to the concentration giving 50% degradation.

In one assay the target is T1, PIP4K2C (Homo sapiens, UniProt Q8TBX8).
T1 sequence (Q8TBX8 1-421): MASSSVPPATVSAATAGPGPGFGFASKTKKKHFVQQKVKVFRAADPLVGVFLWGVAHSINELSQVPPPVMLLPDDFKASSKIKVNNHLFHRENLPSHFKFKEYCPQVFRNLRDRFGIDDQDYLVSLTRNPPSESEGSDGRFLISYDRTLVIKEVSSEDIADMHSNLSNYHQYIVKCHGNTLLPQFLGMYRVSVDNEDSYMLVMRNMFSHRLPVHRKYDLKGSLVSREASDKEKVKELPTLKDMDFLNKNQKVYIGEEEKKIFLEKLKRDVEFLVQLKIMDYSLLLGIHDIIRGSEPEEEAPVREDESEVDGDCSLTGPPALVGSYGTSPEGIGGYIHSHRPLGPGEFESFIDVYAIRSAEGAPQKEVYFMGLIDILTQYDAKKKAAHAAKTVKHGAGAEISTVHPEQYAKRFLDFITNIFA
The assay can be described thus: HiBiT PIP4K2C degradation assay in MOLT-4 cells (endogenous PIP4K2C C-terminally tagged with HiBiT). Conditions: 6 hours of incubation time, rather than 24 hours; MOLT-4, top concentration 10 micromolar; read-out: HiBIT-degradation MOLT4 PIP4k2C DC50 (6 hours, marked *). Further details: untagged in primary human PBMCs and monocyte-derived dendritic cells. Type of assay: cell-based. The gist of the method:
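MOLT-4 knock-in line, HiBiT on PIP4K2C C-terminus; 22,500 cells/well; 10-pt 3-fold titration from 10 micromolar, n=2; 24 h or 6 h, 37 C, 5% CO2; Nano-Glo HiBiT lytic luminescence; DC50 via Hill equation.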
For the compound `O=C1CCC(Nc2ccc(N3CCC(N4CCC(NC(=O)[C@H]5CC[C@H](Nc6ncc(F)c(-c7cccc(N8CCCCC8=O)c7)n6)CC5)CC4)C(F)C3)c(F)c2)C(=O)N1` (stereo partly drawn) [Compound 701, trans-N-(1′-(4-((2,6-dioxopiperidin-3-yl)amino)-2-fluorophenyl)-3′-fluoro-[1,4′-bipiperidin]-4-yl)-4-((5-fluoro-4-(3-(2-oxopiperidin-1-yl)phenyl)pyrimidin-2-yl)amino)cyclohexane-1-carboxamide], the DC50 was less than 500 nM.
On the same count and under the same terms, with `O=C1CCC(Nc2ccc(C3CCN(CCC4CCN(C(=O)O[C@H]5CC[C@H](Nc6ncc(F)c(-c7cccc(-c8ccccc8)c7)n6)CC5)CC4)CC3)c(F)c2)C(=O)N1` (stereo partly drawn) [Compound 469, trans-4-((4-([1,1′-biphenyl]-3-yl)-5-fluoropyrimidin-2-yl)amino)cyclohexyl 4-(2-(4-(4-((2,6-dioxopiperidin-3-yl)amino)-2-fluorophenyl)piperidin-1-yl)ethyl)piperidine-1-carboxylate] the figure was less than 500 nM; with `O=C1CC[C@H](Nc2ccc(C3CCN(CC4CCN(C(=O)[C@H]5CC[C@H](Nc6ncc(F)c(-c7cccc(N8CCCOC8=O)c7)n6)CC5)CC4)CC3)c(F)c2)C(=O)N1` (single isomer, unassigned) [Compound 600], less than 500 nM.
Still for that read-out and setting: with `O=C1CCC(Nc2ccc(N3CCC(N4CCC(C(=O)N[C@H]5CC[C@H](Nc6ncc(F)c(-c7cccc(N8CCOCC8=O)c7)n6)CC5)CC4)C(F)C3)c(F)c2)C(=O)N1` (stereo partly drawn) [Compound 526, 1′-(4-((2,6-dioxopiperidin-3-yl)amino)-2-fluorophenyl)-3′-fluoro-N-((1r,4r)-4-((5-fluoro-4-(3-(3-oxomorpholino)phenyl)pyrimidin-2-yl)amino)cyclohexyl)-[1,4′-bipiperidine]-4-carboxamide] the figure was less than 500 nM.
The same measure, in the same setting: with `O=C1CCC(Nc2ccc(N3CCN(C[C@H]4CC[C@H](C(=O)N5CCC(Nc6ncc(F)c(-c7cccc(N8CCCOC8=O)c7)n6)CC5)CC4)CC3)c(F)c2)C(=O)N1` (stereo partly drawn) [Compound 667, 3-((3-fluoro-4-(4-((trans-4-(4-((5-fluoro-4-(3-(2-oxo-1,3-oxazinan-3-yl)phenyl)pyrimidin-2-yl)amino)piperidine-1-carbonyl)cyclohexyl)methyl)piperazin-1-yl)phenyl)amino)piperidine-2,6-dione] the figure was less than 500 nM.
With `O=C1CCC(Nc2ccc(C3CCN(C[C@H]4CC[C@H](C(=O)N5CCC(Nc6ncc(F)c(-c7cccc(-c8ccc[nH]c8=O)c7)n6)CC5)CC4)CC3)c(F)c2)C(=O)N1` (stereo partly drawn) [Compound 654, 3-((3-fluoro-4-(1-(((trans)-4-(4-((5-fluoro-4-(3-(2-oxo-1,2-dihydropyridin-3-yl)phenyl)pyrimidin-2-yl)amino)piperidine-1-carbonyl)cyclohexyl)methyl)piperidin-4-yl)phenyl)amino)piperidine-2,6-dione], the DC50 was less than 500 nM.
Turning to `O=C1CC[C@H](Nc2ccc(C3CCN(CC4CCN(C(=O)[C@H]5CC[C@H](Nc6ncc(F)c(-c7cccc(-c8ccc[nH]c8=O)c7)n6)CC5)CC4)CC3)c(F)c2)C(=O)N1` (single isomer, unassigned) [Compound 437], the DC50 was less than 500 nM.
Still for that read-out and setting: with `O=C1CCC(Nc2ccc(N3CCC(CN4CCC(C(=O)N[C@H]5CC[C@H](Nc6ncc(F)c(-c7cccc(-n8ccccc8=O)c7)n6)CC5)CC4)CC3)c(F)c2)C(=O)N1` (mixture of isomers) [Compound 433, 1-((1-(4-((2,6-dioxopiperidin-3-yl)amino)-2-fluorophenyl)piperidin-4-yl)methyl)-N-((1r,4r)-4-((5-fluoro-4-(3-(2-oxopyridin-1(2H)-yl)phenyl)pyrimidin-2-yl)amino)cyclohexyl)piperidine-4-carboxamide] the figure was less than 500 nM; with `O=C1CCC(Nc2ccc(C3CCN([C@H]4CC[C@H](C(=O)N[C@H]5CC[C@H](Nc6ncc(F)c(-c7cccc(N8CCCCC8=O)n7)n6)CC5)CC4)CC3)c(F)c2)C(=O)N1` (stereo partly drawn) [Compound 566, trans-(1r,4R)-4-(4-(4-((2,6-dioxopiperidin-3-yl)amino)-2-fluorophenyl)piperidin-1-yl)-N-((1r,4R)-4-((5-fluoro-4-(6-(2-oxopiperidin-1-yl)pyridin-2-yl)pyrimidin-2-yl)amino)cyclohexyl)cyclohexane-1-carboxamide], less than 500 nM; with `O=C1CC[C@H](Nc2ccc(N3CCC(N4CCC(O)(C(=O)N[C@H]5CC[C@H](Nc6ncc(F)c(-c7cccc(-n8ccccc8=O)c7)n6)CC5)CC4)CC3)c(F)c2)C(=O)N1` (single isomer, unassigned) [Compound 594], less than 500 nM.
For the compound `CN(C(=O)[C@H]1CC[C@H](Nc2ncc(F)c(-c3cccc(-n4ccccc4=O)c3)n2)CC1)[C@H]1CC[C@H](N2CCN(c3ccc(NC4CCC(=O)NC4=O)cc3F)CC2)CC1` (stereo partly drawn) [Compound 488, trans-(1r,4R)—N-((1r,4R)-4-(4-(4-((2,6-dioxopiperidin-3-yl)amino)-2-fluorophenyl)piperazin-1-yl)cyclohexyl)-4-((5-fluoro-4-(3-(2-oxopyridin-1(2H)-yl)phenyl)pyrimidin-2-yl)amino)-N-methylcyclohexane-1-carboxamide], the DC50 is less than 500 nM.

The same assay, now with this note: 24 hours incubation, MOLT-4, top concentration 10 micromolar; read-out: HiBIT-degradation MOLT4 PIP4k2C 24 hours DC50.
On to `Cn1nc(C2CCC(=O)NC2=O)c2ccc(C3CCN(C[C@H]4CC[C@H](NC(=O)[C@H]5CCC[C@@H](Nc6ncc(F)c(-c7cccc(-n8ccccc8=O)c7)n6)C5)CC4)CC3)cc21` (relative stereo) [Compound 307, cis-trans-N-(4-((4-(3-(2,6-dioxopiperidin-3-yl)-1-methyl-1H-indazol-6-yl)piperidin-1-yl)methyl)cyclohexyl)-3-((5-fluoro-4-(3-(2-oxopyridin-1(2H)-yl)phenyl)pyrimidin-2-yl)amino)cyclohexane-1-carboxamide], for which the DC50 was 1000 to 5000 nM.
Regarding `O=C1CCC(Oc2ccc(N3CCC(O)(CC(=O)N4CCN(C(=O)[C@H]5CCC[C@@H](Nc6ncc(Cl)c(-c7cccc(-c8ccc(F)cc8)c7)n6)C5)CC4)CC3)c(F)c2)C(=O)N1` (relative stereo) [Compound 292, cis-3-(4-(4-(2-(4-(3-((5-chloro-4-(4′-fluoro-[1,1′-biphenyl]-3-yl)pyrimidin-2-yl)amino)cyclohexane-1-carbonyl)piperazin-1-yl)-2-oxoethyl)-4-hydroxypiperidin-1-yl)-3-fluorophenoxy)piperidine-2,6-dione], the DC50 was more than 5000 nM.
Still for that read-out and setting: with `O=C1CCC(Nc2ccc(C3CCN(CC4CCN(CC(=O)N5CCC(Nc6ncc(F)c(-c7cccc(-n8ccccc8=O)c7)n6)CC5)CC4)CC3)c(F)c2)C(=O)N1` (stereo not drawn) [Compound 314, 3-((3-fluoro-4-(1-((1-(2-(4-((5-fluoro-4-(3-(2-oxopyridin-1(2H)-yl)phenyl)pyrimidin-2-yl)amino)piperidin-1-yl)-2-oxoethyl)piperidin-4-yl)methyl)piperidin-4-yl)phenyl)amino)piperidine-2,6-dione] the figure was less than 500 nM.
The same measure, in the same setting: with `O=C1CCC(n2c(=O)oc3cc(C4CCN(CC5CCN(CC(=O)N6CCC(Nc7ncc(F)c(-c8cccc(-c9ccc[nH]c9=O)c8)n7)CC6)CC5)CC4)ccc32)C(=O)N1` (stereo not drawn) [Compound 379, 3-[6-[1-[[1-[2-[4-[[5-fluoro-4-[3-(2-oxo-1H-pyridin-3-yl)phenyl]pyrimidin-2-yl]amino]-1-piperidyl]-2-oxo-ethyl]-4-piperidyl]methyl]-4-piperidyl]-2-oxo-1,3-benzoxazol-3-yl]piperidine-2,6-dione] the figure was less than 500 nM; with `O=C1CCC(n2c(=O)oc3cc(N4CCC(CN5CCC(NC(=O)[C@H]6CCC[C@@H](Nc7ncc(F)c(-c8cccc(-n9ccccc9=O)c8)n7)C6)CC5)CC4)ccc32)C(=O)N1` (relative stereo) [Compound 320, cis-N-(1-((1-(3-(2,6-dioxopiperidin-3-yl)-2-oxo-2,3-dihydrobenzo[d]oxazol-6-yl)piperidin-4-yl)methyl)piperidin-4-yl)-3-((5-fluoro-4-(3-(2-oxopyridin-1(2H)-yl)phenyl)pyrimidin-2-yl)amino)cyclohexane-1-carboxamide], less than 500 nM.
As for `Cn1c(=O)n(C2CCC(=O)NC2=O)c2ccc(C3CCN(C4CCN(CC(=O)N5CCC[C@H](Nc6ncc(Cl)c(-c7cccc(-c8ccccc8)c7)n6)C5)CC4)CC3)cc21` (stereo partly drawn) [Compound 75, 3-(5-(1′-(2-((S)-3-((4-([1,1′-biphenyl]-3-yl)-5-chloropyrimidin-2-yl)amino)piperidin-1-yl)-2-oxoethyl)-[1,4′-bipiperidin]-4-yl)-3-methyl-2-oxo-2,3-dihydro-1H-benzo[d]imidazol-1-yl)piperidine-2,6-dione], the half-maximal degradation concentration (DC50) was less than 500 nM.

Staying with this assay, now noted: read-out: HiBIT-degradation MOLT4 PIP4k2C DC50 (6 hours, marked *); 6 hours of incubation time, rather than 24 hours; MOLT-4, top concentration 10 micromolar.
For the compound `O=C1CCC(Nc2ccc(N3CCN(C[C@H]4CC[C@H](CNC(=O)[C@H]5CC[C@H](Nc6ncc(F)c(-c7cccc(N8CCOCC8=O)c7)n6)CC5)CC4)CC3)c(F)c2)C(=O)N1` (stereo partly drawn) [Compound 586, trans-(1r,4R)—N-(((1r,4R)-4-((4-(4-((2,6-dioxopiperidin-3-yl)amino)-2-fluorophenyl)piperazin-1-yl)methyl)cyclohexyl)methyl)-4-((5-fluoro-4-(3-(3-oxomorpholino)phenyl)pyrimidin-2-yl)amino)cyclohexane-1-carboxamide], the 50% degradation concentration (DC50) was less than 500 nM.
